The values that follow come from ChEMBL document CHEMBL3297721, “Protein-ligand interactions: probing the energetics of a putative cation-π interaction” (Bioorg Med Chem Lett, 2014).

Square brackets hold non-standard residues; d marks the D form. Peptide text beside a SMILES is read from it. * marks the point of attachment. pY = N[C@@H](Cc1ccc(OP(=O)(O)O)cc1)C(=O)O; Hydrocinnamoyl = O=C(CCc1ccccc1)*; Ac6c = NC1(C(=O)O)CCCCC1; Cbz = O=C(OCc1ccccc1)*

The target in one assay is T1, Growth factor receptor-bound protein 2 (Homo sapiens, UniProt P62993). The experiment in a line: Binding affinity to Grb2 SH2 domain (60 to 151) (unknown origin) expressed in Escherichia coli BL21(DE3) after overnight incubation by ELISA. In general terms: In an ELISA, binding on a coated surface is turned into a signal by an enzyme label.
Target sequence in this assay (P62993 whole entry, the tested form may be a part): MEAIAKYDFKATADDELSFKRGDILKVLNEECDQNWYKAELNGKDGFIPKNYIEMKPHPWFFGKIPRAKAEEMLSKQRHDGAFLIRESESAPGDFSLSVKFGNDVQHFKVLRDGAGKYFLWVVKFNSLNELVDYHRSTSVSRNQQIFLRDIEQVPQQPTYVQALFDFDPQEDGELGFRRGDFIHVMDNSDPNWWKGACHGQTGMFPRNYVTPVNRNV
Regarding `C[C@](NC(=O)[C@H](Cc1ccc(OP(=O)(O)O)cc1)NC(=O)OCc1cccc(N)c1)(C(=O)N[C@@H](CC(N)=O)C(N)=O)c1ccc(OP(=O)(O)O)cc1`, the IC50 was found to be 0.013 µM.

For a further assay, the target named is T1, Growth factor receptor-bound protein 2. The experiment in a line: Binding affinity to Grb2 SH2 domain (unknown origin) by isothermal titration calorimetry. (In ITC the heat of successive injections is recorded.)
Target sequence in this assay (P62993 whole entry, looked up, the tested form may be a part): as the sequence (P62993 whole entry, the tested form may be a part) above
For `NC(=O)C[C@H](NC(=O)C1(NC(=O)[C@H](Cc2ccc(OP(=O)(O)O)cc2)NC(=O)OCc2cccc(N)c2)CCCCC1)C(N)=O`, the Ka was found to be 8.8 ×10⁶ /M. The compound `NC(=O)C[C@H](NC(=O)C1(NC(=O)[C@H](Cc2ccc(OP(=O)(O)O)cc2)NC(=O)CCc2ccccc2)CCCCC1)C(N)=O` (Hydrocinnamoyl-[pY]-[Ac6c]-Asn-NH2) showed a Ka of 23.4 ×10⁶ /M. Same read-out and setting: the value for `CC(=O)N[C@@H](Cc1ccc(OP(=O)(O)O)cc1)C(=O)NC1(C(=O)N[C@@H](CC(N)=O)C(N)=O)CCCCC1` (HELM PEPTIDE1{[ac].[O=C([C@H](Cc1ccc(OP(=O)(O)O)cc1)N[*:1])[*:2]].[O=C(C1(N[*:1])CCCCC1)[*:2]].N.[am]}$$$$V2.0) was 7 ×10⁶ /M; that for `NC(=O)C[C@H](NC(=O)C1(NC(=O)[C@H](Cc2ccc(OP(=O)(O)O)cc2)NC(=O)CCC2CCCCC2)CCCCC1)C(N)=O` was 28.8 ×10⁶ /M; that for `NC(=O)C[C@H](NC(=O)C1(NC(=O)[C@H](Cc2ccc(OP(=O)(O)O)cc2)NC(=O)OCc2ccccc2)CCCCC1)C(N)=O` (Cbz-[pY]-[Ac6c]-Asn-NH2) was 6.5 ×10⁶ /M. The compound `Cn1cc(CCC(=O)N[C@@H](Cc2ccc(OP(=O)(O)O)cc2)C(=O)NC2(C(=O)N[C@@H](CC(N)=O)C(N)=O)CCCCC2)c2ccccc21` came in with a Ka of 11.4 ×10⁶ /M.

The term IC50 denotes the concentration at which inhibition is half-maximal. A low value points to inhibition by little substance.
